Experimental data from US5077034A, “Treatment of tumors with 5-radioiodo-2'-deoxyuridine” (priority 1990, dated 1991).

Experiments:
[1] = test system: murine ovarian tumor (MOT); assay: scintigraphic imaging in MOT-bearing and control mice; assay type: in vivo, C3HeB/FeJ mice
[2] = test system: murine ovarian tumor (MOT); assay: tumor cell survival after treatment of mouse ascites tumor (MOT); assay type: in vivo, C3HeB/FeJ mice
Procedure: (§1) The murine ovarian tumor (MOT) used in these experiments arose spontaneously in the ovary of a C3H mouse and is maintained in our laboratories by serial intraperitoneal [i.p.] transplantation in female C3HeB/FeJ mice. We have examined the appropriateness of the i.p. route for IUdR administration as a means to (i) bypass the rapid intrahepatic dehalogenation of this agent, and (ii) obtain high tumor to nontumor ratios. In these experiments, mice were injected with 10^6 tumor cells 24 h prior to the i.p. administration of ^125 IUdR [5 injections, 4 h apart]. […] Tumor-to-normal-tissue ratios derived from th biodistribution results ranged from 20 for organs with actively proliferating cells (for example uterus, intestine, stomach) to over 400 for organs with nondividing cells (brain, heart).
(§2) The tumor used in these experiments is the same murine ovarian tumor desoribed above. We have determined the median survival of mice after i.p. challenge with various tumor cell inocula.
The relatively long survival of tumor-bearing mice facilitates quantitative evaluation of tumor cell killing after treatment with ^125 IUdR and can be used to calculate a cellular survival fraction. We have, therefore, studied tumor cell survival as a function of the dose of ^125 IUdR administered i.p. at 4 h intervals beginning 24 h after tumor cell i.p. inoculation [10^5 -10^6 cells].
When mice are treated with four doses of ^125 IUdR at 4-h intervals and the survival fraction plotted as a function of the dose per treatment, a rapid decrease in the tumor cell survival fraction [10^-3 ] is observed at doses of 20 μCi per treatment with the curve being flat at higher levels [FIG. 6]. When seven consecutive injections of ^125 IUdR are given, a similar steep reduction in tumor cell survival is also observed; the plateau in this regimen occurs at a survival fraction of 10^-5.

[3] = test system: murine ovarian tumor (MOT); assay: median survival of tumor-bearing (MOT ascites) mice; assay type: in vivo, C3HeB/FeJ mice; details: 5 i.p. injections, 4 h intervals, 24 h post i.p. tumor inoculation; FIG. 7; dose-dependent
Procedure: as §1, §2

cultured mammalian cells = details: when incorporated into nuclear DNA; in vitro; cited from earlier work
9L gliosarcoma [4] = assay: scintigraphic imaging of intracerebral 9L gliosarcoma-bearing and sham-operated rats
[5] = biodistribution of radioactivity 40 h after intracerebral injection in 9L gliosarcoma-bearing and sham-operated rats; details: rat, right brain
9L gliosarcoma [6] = assay: as above
[7] = catabolism/dehalogenation of IUdR in vivo; details: IUdR escaping from the CNS
[8] = later time points (2, 16 and 24 hr), single injection of 300 μCi

For `O=c1[nH]c(=O)n([C@H]2C[C@H](O)[C@@H](CO)O2)cc1[123I]` [^123 IUdR, 5-[^123 I/^125 I]iodo-2'-deoxyuridine], the “abdominal radioactivity, tumor-bearing and control mice” value ([1]; 1 h after single injection of 300 μCi) was “focal localization of radioactivity”, the “abdominal activity, animals without tumor” value [1, 8] was “cleared from the abdomen” and the “focal area of abdominal activity, MOT-bearing mice” value [1, 8] was “persisted only in MOT-bearing mice”. The “tumor cell survival fraction as a function of dose” value ([2]; 5 i.p. injections, 4 h intervals, 24 h post i.p. tumor inoculation, FIG. 8) was “exponential decrease”, the “median survival of tumor-bearing animals” value [3] was “prolongs median survival” and the “toxicity to cultured mammalian cells” value (cultured mammalian cells) was “extremely toxic”. For the same compound, the “activity in the thyroid” value (9L gliosarcoma [4]; 0.1% potassium iodide in drinking water 48 h prior) was “No activity was seen”, the “activity within the head region at subsequent intervals” value (9L gliosarcoma [4]; 12-38 h, all tumor-bearing animals) was “persistence of the activity” and the “bladder and stomach activities at subsequent intervals” value (9L gliosarcoma [4]; 12-38 h, both groups, mainly associated with stomach contents and urine) was “still observed in both groups”. The “activity in the head” value (9L gliosarcoma [4]; 1 h after intracerebral injection, tumor-bearing [n=16] and sham-operated [n=8]) was “showed activity in the head”, the “clearance of the activity from the head” value (9L gliosarcoma [4]; all control (sham-operated) animals) was at most 12 h and the “activity in the stomach and the bladder” value (9L gliosarcoma [4]; scintigraphy, 1 h after intracerebral injection) was “evident”. The “dehalogenation and excretion of free iodine” value (9L gliosarcoma [4]; suggested by stomach and bladder activity, 1 h) was “rapid”, the tissue uptake at 40 h [5] was 0.36 ± 0.14 %ID/g and the tissue uptake at 40 h ([5]; uptake in right brain [injected side], sham-operated controls, 40 h after injection, mean±SD) was 0.09 ± 0.02 %ID/g. For the same compound, the “activity in stomach and bladder” value (9L gliosarcoma [6]; 40 h, mainly associated with the stomach contents and with urine) was “high activities”, the “activity in all other normal tissues” value (9L gliosarcoma [6]; 40 h, with the exception of the stomach and the bladder) was “low” and the “uptake in a tumor that could be precisely excised” value (9L gliosarcoma [6]; one animal, 40 h after injection) was 12 % of the ID.
In the case of `O=c1[nH]c(=O)n([C@H]2C[C@H](O)[C@@H](CO)O2)cc1[131I]` [IUdR radiolabeled with ^131 I, reference compound], the “decrease in tumor cell survival” value ([2]; equivalent doses) is reported as “does not result in anv decrease in survival”.
In the case of `O=c1[nH]c(=O)n([C@H]2C[C@H](O)[C@@H](CO)O2)cc1[125I]` [^125 IUdR, 5-[^123 I/^125 I]iodo-2'-deoxyuridine], the “tumor cell survival fraction” value ([2]; four i.p. doses at 4-h intervals, 20 μCi per treatment, curve flat at higher levels) is given as 10^-3, the “tumor cell survival fraction (plateau)” value ([2]; seven consecutive i.p. injections) is given as 10^-5 and the “toxicity to cultured mammalian cells” value (cultured mammalian cells) is given as “extremely toxic”.
With `O=c1[nH]c(=O)n([C@H]2C[C@H](O)[C@@H](CO)O2)cc1I` [IUdR, 5-Iodo-2'-deoxyuridine] the catabolism/dehalogenation [7] was “rapidly”.
